Reference: PMC8129133, “Polymer-free corticosteroid dimer implants for controlled and sustained drug delivery” (Nature Communications, 2021)
“And” between values parts separate entries of the source, which are not always exact repeats. Equal entries are not always repeated.

Test: In vitro release
Type: physicochemical
Conditions: for 30G x 6 mm - Cumulative Dex Release / 23G x 6 mm - Cumulative Dex Release: single samples and AVG; for Dex Release: Fig 5h implants, 1.5 ml FBS; for Cumulative Dex (%) / Cumulative Dex-TEG (%) / Cumulative Dex-TEG-Dex (%): Fig 4d pellet
Description: Pellets for release studies. Crystalline drug dimers were weighed on a stainless steel coupon. In the case of blends with a second drug, the dimer and drug were mixed at the desired mass ratio with mortar and pestle prior to weighing. Samples were transferred to a heat press (Carver Laboratory Press). A PTFE mold containing an array of 1 mm diameter holes of 1 mm depth was placed on top of the melt, and pressure was applied for 2 min. Molded pellets were cooled to room temperature and punched out of the mold, yielding a pellet of 1 mm height × 1 mm diameter.
Release studies were carried out using different media, including PBS (pH 7.4, Gibco), 100% FBS (Sigma, F1051), 1% FBS in PBS pH 7.4, and 3.6% BSA (Sigma, A7906) in PBS (pH 7.4, Gibco). […] Samples were incubated in release medium at 37 °C under constant agitation on an orbital shaker at 115 rpm (VWR). At designated timepoints, sampling was performed by complete removal of medium and replenishment with fresh buffer. Sampling timepoints included 24 h and then every 3–4 days thereafter. For PBS release conditions, samples were analyzed directly. For samples with protein (100% FBS, 1% FBS, 3.6% BSA), protein was precipitated by addition of acetonitrile. Samples were vortexed and centrifuged to separate extracted drug from precipitated protein. The supernatant was then analyzed for drug concentration by HPLC.

C[C@@H]1C[C@H]2[C@@H]3CCC4=CC(=O)C=C[C@]4(C)[C@@]3(F)[C@@H](O)C[C@]2(C)[C@@]1(O)C(=O)COC(=O)OCCOCCOCCOC(=O)OCC(=O)[C@@]1(O)[C@H](C)C[C@H]2[C@@H]3CCC4=CC(=O)C=C[C@]4(C)[C@@]3(F)[C@@H](O)C[C@@]21C [Dex-TEG-Dex]
30G x 6 mm - Cumulative Dex Release (Fig 4e, Day 24, mean): 14632.22 ng | 23G x 6 mm - Cumulative Dex Release, % (Fig 4e, Day 28, AVG): 5.83% | 30G x 6 mm - Cumulative Dex Release, % (Fig 4e, Day 28, AVG): 26.07% | 23G x 6 mm - Cumulative Dex Release (Fig 4e, Day 28): 22513.24 ng and 19328.26 ng and 15619.66 ng and 21703.43 ng and 22527.37 ng and 19996.59 ng | 30G x 6 mm - Cumulative Dex Release (Fig 4e, Day 28): 17080.41 ng and 16856.88 ng and 15635.65 ng and 15175.33 ng and 17376.10 ng | 23G x 6 mm - Cumulative Dex Release (Fig 4e, Day 28, mean): 20281.43 ng | 30G x 6 mm - Cumulative Dex Release (Fig 4e, Day 28, mean): 16424.87 ng | Cumulative Dex Release (Fig 5e extruded rods, 4.4 ml PBS, Day 3, samples and avg): 1097.22 ng and 914.62 ng and 1001.18 ng | Cumulative Dex Release (Fig 5e extruded rods, 4.4 ml PBS, Day 3, samples and avg, mean): 1004.34 ng | Cumulative Dex Release (Fig 5e extruded rods, 4.4 ml PBS, Day 7, samples and avg): 2505.34 ng and 2182.65 ng and 1890.99 ng | Cumulative Dex Release (Fig 5e extruded rods, 4.4 ml PBS, Day 7, samples and avg, mean): 2192.99 ng | Cumulative Dex Release (Fig 5e extruded rods, 4.4 ml PBS, Day 10, samples and avg): 3527.54 ng and 3009.52 ng and 2686.37 ng | Cumulative Dex Release (Fig 5e extruded rods, 4.4 ml PBS, Day 10, samples and avg, mean): 3074.48 ng | Cumulative Dex Release (Fig 5e extruded rods, 4.4 ml PBS, Day 14, samples and avg): 4834.31 ng and 3361.72 ng and 3917.67 ng | Cumulative Dex Release (Fig 5e extruded rods, 4.4 ml PBS, Day 14, samples and avg, mean): 4037.90 ng | Cumulative Dex Release (%) (Fig 5e extruded rods, PBS, Day 3, avg): 5.68% | Cumulative Dex Release (%) (Fig 5e extruded rods, PBS, Day 7, avg): 12.40% | Cumulative Dex Release (%) (Fig 5e extruded rods, PBS, Day 10, avg): 17.39% | Cumulative Dex Release (%) (Fig 5e extruded rods, PBS, Day 14, avg): 22.83% | Cumulative Dex Release (Fig 5g pellet 1x1 mm, 2 ml FBS, Day 1, samples and avg): 7893.42 ng and 9312.84 ng and 6181.88 ng | Cumulative Dex Release (Fig 5g pellet 1x1 mm, 2 ml FBS, Day 1, samples and avg, mean): 7796.05 ng | Cumulative Dex Release (Fig 5g pellet 1x1 mm, 2 ml FBS, Day 4, samples and avg): 30339.61 ng and 45405.22 ng and 23002.55 ng | Cumulative Dex Release (Fig 5g pellet 1x1 mm, 2 ml FBS, Day 4, samples and avg, mean): 32915.79 ng | Cumulative Dex Release (Fig 5g pellet 1x1 mm, 2 ml FBS, Day 7, samples and avg (Dex-TEG-Dex)): 54914.64 ng and 66482.50 ng and 47540.80 ng | Cumulative Dex Release (Fig 5g pellet 1x1 mm, 2 ml FBS, Day 7, samples and avg (Dex-TEG-Dex), mean): 56312.65 ng | Cumulative Dex Release (Fig 5g pellet 1x1 mm, 2 ml FBS, Day 12, samples and avg): 107363.57 ng and 105953.49 ng and 95651.85 ng | Cumulative Dex Release (Fig 5g pellet 1x1 mm, 2 ml FBS, Day 12, samples and avg, mean): 102989.64 ng | Cumulative Dex Release (Fig 5g pellet 1x1 mm, 2 ml FBS, Day 14, samples and avg (Dex-TEG-Dex)): 134750.54 ng and 130454.95 ng and 117349.61 ng | Cumulative Dex Release (Fig 5g pellet 1x1 mm, 2 ml FBS, Day 14, samples and avg (Dex-TEG-Dex), mean): 127518.37 ng | Cumulative Dex Release (%) (Fig 5g pellet, FBS, Day 1, avg): 1.53% | Cumulative Dex Release (%) (Fig 5g pellet, FBS, Day 4, avg): 6.45% | Cumulative Dex Release (%) (Fig 5g pellet, FBS, Day 7, avg (Dex-TEG-Dex)): 11.03% | Cumulative Dex Release (%) (Fig 5g pellet, FBS, Day 12, avg): 20.18% | Cumulative Dex Release (%) (Fig 5g pellet, FBS, Day 14, avg (Dex-TEG-Dex)): 24.99% | Dex Release (Surface Area 0.4 mm2): 4010.80 ng/day and 4214.70 ng/day and 4298.12 ng/day | Dex Release (Surface Area 2.23 mm2): 36784.29 ng/day and 23408.43 ng/day and 28616.37 ng/day | Dex Release (Surface Area 5.3 mm2): 79250.12 ng/day and 77804.43 ng/day and 51184.45 ng/day | Cumulative Dex (%) (3.6% BSA, Day 1): 0.09% | Cumulative Dex-TEG (%) (3.6% BSA, Day 1): 0.00388% and 0.000233% and 0.00% and 0.00648% | Cumulative Dex-TEG-Dex (%) (3.6% BSA, Day 1): 0.27% and 0.25% and 0.32% and 0.24% and 0.26% and 0.273% | Cumulative Dex (%) (3.6% BSA, Day 3): 0.26% | Cumulative Dex-TEG (%) (3.6% BSA, Day 3): 0.0221% and 0.0216% and 0.0328% and 0.0218% and 0.0264% and 0.0252% | Cumulative Dex-TEG-Dex (%) (3.6% BSA, Day 3): 0.51% and 0.48% and 0.61% and 0.44% and 0.4979% | Cumulative Dex-TEG (%) (3.6% BSA, Day 7): 0.08% and 0.09% and 0.10% and 0.12% | Cumulative Dex-TEG-Dex (%) (3.6% BSA, Day 7): 0.69% and 0.68% and 0.90% and 0.62% and 0.66% and 0.7212% | Cumulative Dex (%) (3.6% BSA, Day 10): 1.32% | Cumulative Dex-TEG (%) (3.6% BSA, Day 10): 0.18% and 0.14% and 0.15% and 0.16% and 0.20% | Cumulative Dex-TEG-Dex (%) (3.6% BSA, Day 10): 0.89% and 1.18% and 0.82% and 0.87% and 0.9318% | Cumulative Dex (%) (3.6% BSA, Day 14): 1.97% | Cumulative Dex-TEG (%) (3.6% BSA, Day 14): 0.28% and 0.21% and 0.25% and 0.22% | Cumulative Dex-TEG-Dex (%) (3.6% BSA, Day 14): 1.13% and 1.12% and 1.43% and 0.98% and 1.06% and 1.102% | Cumulative Dex-TEG (%) (100% FBS, Day 1): 0.00% | Cumulative Dex-TEG-Dex (%) (100% FBS, Day 1): 0.045% and 0.05% and 0.07% | Cumulative Dex-TEG (%) (100% FBS, Day 3): 0.02% and 0.0246% and 0.00% | Cumulative Dex-TEG-Dex (%) (100% FBS, Day 3): 0.11% and 0.16% and 0.18% | Cumulative Dex-TEG (%) (100% FBS, Day 7): 0.06% and 0.0546% and 0.04% | Cumulative Dex-TEG-Dex (%) (100% FBS, Day 7): 0.22% and 0.28% and 0.36% | Cumulative Dex-TEG (%) (100% FBS, Day 10): 0.0647% and 0.0546% and 0.06% | Cumulative Dex-TEG-Dex (%) (100% FBS, Day 10): 0.29% and 0.38% and 0.50% | Cumulative Dex-TEG (%) (100% FBS, Day 14): 0.08% and 0.10% | Cumulative Dex-TEG-Dex (%) (100% FBS, Day 14): 0.39% and 0.49% and 0.68% | Cumulative Dex Release (Fig 5d coating, 4 ml PBS, Day 3, samples and avg): 5791.09 ng and 5024.11 ng | Cumulative Dex Release (Fig 5d coating, 4 ml PBS, Day 3, samples and avg, mean): 5535.43 ng | Cumulative Dex Release (Fig 5d coating, 4 ml PBS, Day 7, samples and avg): 17637.28 ng and 18646.47 ng and 15578.55 ng | Cumulative Dex Release (Fig 5d coating, 4 ml PBS, Day 7, samples and avg, mean): 17287.43 ng | Cumulative Dex Release (Fig 5d coating, 4 ml PBS, Day 10, samples and avg): 20320.09 ng and 21014.00 ng and 17829.42 ng | Cumulative Dex Release (Fig 5d coating, 4 ml PBS, Day 10, samples and avg, mean): 19721.17 ng | Cumulative Dex Release (Fig 5d coating, 4 ml PBS, Day 14, samples and avg): 28452.49 ng and 28863.83 ng and 25840.72 ng | Cumulative Dex Release (Fig 5d coating, 4 ml PBS, Day 14, samples and avg, mean): 27719.01 ng | Cumulative Dex Release (%) (Fig 5d coating, PBS, Day 3, avg): 0.71% | Cumulative Dex Release (%) (Fig 5d coating, PBS, Day 7, avg): 2.21% | Cumulative Dex Release (%) (Fig 5d coating, PBS, Day 10, avg): 2.52% | Cumulative Dex Release (%) (Fig 5d coating, PBS, Day 14, avg): 3.55%
